biological target: T1, CXCR3 (Homo sapiens, UniProt P49682); assay: 125I-IP-10 binding assay; conditions: displacement of 125I-IP-10
T1 sequence (P49682 1-368): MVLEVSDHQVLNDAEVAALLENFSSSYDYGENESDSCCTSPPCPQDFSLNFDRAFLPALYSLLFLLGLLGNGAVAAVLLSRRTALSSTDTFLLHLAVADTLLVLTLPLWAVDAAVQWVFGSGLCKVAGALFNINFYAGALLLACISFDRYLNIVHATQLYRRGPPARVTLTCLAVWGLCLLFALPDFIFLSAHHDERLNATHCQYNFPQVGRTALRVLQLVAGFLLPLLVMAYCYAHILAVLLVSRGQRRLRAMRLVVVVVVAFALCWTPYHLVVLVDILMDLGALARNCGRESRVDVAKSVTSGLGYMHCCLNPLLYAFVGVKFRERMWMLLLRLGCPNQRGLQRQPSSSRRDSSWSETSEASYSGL

| IC50 [nM] | Structure (SMILES) |
| --- | --- |
| > 1000 | Fc1cc(C(F)(F)F)ccc1N1CCC2(CC1)NCCc1c2[nH]c2ccccc12 [Example 12] |
| > 1000 | FC(F)(F)c1ccc(N2CCC3(CC2)NCCc2c3[nH]c3ccccc23)c(Br)c1 [Example 13] |
| < 500 | FC(F)(F)c1cnc(N2CCC3(CC2)NCCc2c3[nH]c3ccccc23)c(Cl)c1 [Example 1] |
| > 1000 | FC(F)(F)c1ccc(N2CCC3(CC2)NCCc2c3[nH]c3ccccc23)nc1 [Example 2] |
| > 1000 | O=[N+]([O-])c1cc(C(F)(F)F)ccc1N1CCC2(CC1)NCCc1c2[nH]c2ccccc12 [Example 8] |
| > 1000 | O=[N+]([O-])c1ccc(N2CCC3(CC2)NCCc2c3[nH]c3ccccc23)c(Cl)c1 [Example 18] |
| > 1000 | FC(F)(F)c1cc(Cl)c(N2CCC3(CC2)NCCc2c3[nH]c3ccccc23)c(Cl)c1 [Example 14] |
| > 1000 | Clc1cnc(N2CCC3(CC2)NCCc2c3[nH]c3ccccc23)c(Cl)c1 [Example 3] |
| > 1000 | Clc1cc(I)ccc1N1CCC2(CC1)NCCc1c2[nH]c2ccccc12 [Example 17] |
| < 500 | O=[N+]([O-])c1cc(C(F)(F)F)cc(Cl)c1N1CCC2(CC1)NCCc1c2[nH]c2ccccc12 [Example 15] |
| > 1000 | FC(F)(F)c1ccc(Cl)c(N2CCC3(CC2)NCCc2c3[nH]c3ccccc23)c1 [Example 6] |
| > 1000 | FC(F)(F)c1ccc(N2CCC3(CC2)NCCc2c3[nH]c3ccccc23)c(C(F)(F)F)c1 [Example 11] |
| > 1000 | COC(=O)c1ccc(N2CCC3(CC2)NCCc2c3[nH]c3ccccc23)c(Cl)c1 [Example 19] |
| > 1000 | FC(F)(F)c1ccc(N2CCC3(CC2)NCCc2c3[nH]c3ccccc23)cc1 [Example 7] |
| < 500 | FC(F)(F)c1ccc(N2CCC3(CC2)NCCc2c3[nH]c3ccccc23)c(Cl)c1 [Example 5] |
| > 1000 | Cc1cc(C(F)(F)F)cnc1N1CCC2(CC1)NCCc1c2[nH]c2ccccc12 [Example 4] |
| 500 to 1000 | NC(=O)c1cc(C(F)(F)F)ccc1N1CCC2(CC1)NCCc1c2[nH]c2ccccc12 [Example 9] |
| > 1000 | N#Cc1cc(C(F)(F)F)ccc1N1CCC2(CC1)NCCc1c2[nH]c2ccccc12 [Example 10] |
| > 1000 | Clc1ccc(N2CCC3(CC2)NCCc2c3[nH]c3ccccc23)c(Cl)c1 [Example 16] |

Reference: patent US20070149557A1, “CXCR3 antagonists” (Amgen Inc., priority 2005, published 2007)
